Earlier results on 3 compounds are cited in patent publication US20240148037A1, “STEVIOL GLYCOSIDE FORMULATIONS FOR FOOD AND BEVERAGES” (SWEEGEN, INC., priority 2019, published 2024).

For this series the following is noted: relative to sucrose.
Regarding `C=C1C[C@@]23CC[C@H]4[C@@](C)(CCC[C@@]4(C)C(=O)O[C@@H]4O[C@H](CO)[C@@H](O)[C@H](O)[C@H]4O)[C@@H]2CC[C@]1(O[C@@H]1O[C@H](CO)[C@@H](O)[C@H](O)[C@H]1O[C@@H]1O[C@@H](C)[C@H](O)[C@@H](O)[C@H]1O)C3` [Dulcoside A], the “times sweeter than sucrose” value was “about 30 times”. Turning to Rebaudioside C, the “times sweeter than sucrose” value is 40-60 times. Take `C=C1C[C@@]23CC[C@H]4[C@@](C)(CCC[C@@]4(C)C(=O)O[C@@H]4O[C@H](CO)[C@@H](O)[C@H](O)[C@H]4O)[C@@H]2CC[C@]1(O[C@@H]1O[C@H](CO)[C@@H](O)[C@H](O)[C@H]1O[C@@H]1O[C@H](CO)[C@@H](O)[C@H](O)[C@H]1O)C3` [stevioside]: the “times sweeter than sucrose” value is 100-150 times.
